Consider 31 compounds from PubChem BioAssay (NCI).

Values joined by “and” are separate entries in the source; they are usually repeats but may differ in a detail not shown here. Equal entries are not always repeated.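 In this assay, cells in 96-well plates receive the compound at five concentrations for 48 hours. Endpoints are linearly interpolated between the surrounding concentrations. GI50 = concentration required for 50% inhibition of growth. TGI: concentration producing complete growth inhibition.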

Holding throughout (experiment): growth of human tumour cells (NCI), 48 h
The subject of experiment [1] is BT-549 breast.
Experiment [2] concerns HCT-116 colon.
The subject of experiment [3] is M14 melanoma.
In experiment [4] the test system is MALME-3M melanoma.
Experiment [5] deals with NCI-H460 lung.
Experiment [6] has as its system NCI-H522 lung.
In experiment [7] the test system is RXF 393 renal.
Experiment [8] deals with NCI/ADR-RES ovarian.
Experiment [9] deals with RPMI-8226 leukemia.
For experiment [10], the system named is HS 578T breast.

Regarding `O=C1c2[nH]cc(CN3CCNCC3)c2C(=O)c2c1c(O)c1ccccc1c2O`, the GI50 in experiment [1] is 4.86 µM; in experiment [2] it was 1.07 µM; in experiment [3], 1.53 µM; in [4], 6.3 µM; in experiment [5], 18.5 µM; in experiment [6], 1.76 µM. Besides, the GI50 in experiment [7] was 23.9 µM. For the same compound, the TGI in experiment [1] is 20.3 µM; in [2], 2.25 µM; in experiment [3] it was 3.23 µM; in experiment [4] it was 13.3 µM; in experiment [5], above 78.3 µM; in experiment [6], 3.65 µM. Moreover, in [7], the TGI was 71.2 µM.
For `O=C1/C(=C/c2ccccc2)CCc2ccc(Cl)nc21`, the TGI in experiment [1] was 32.1 µM; in experiment [2], 7 µM; in experiment [3] it was 23.6 µM; in [4], 27.2 µM; in [5], above 64 µM; in [6] it was 10.4 µM. The TGI in [8] was above 63.7 µM; in [9] it was 7.88 µM; in experiment [7], 24.8 µM.
With `COc1ccc(C2(c3ccc(OC)cc3)OC(=O)c3cccc4cccc2c34)cc1`, the TGI in experiment [1] was above 100 µM; in experiment [2], above 100 µM; in [10] it was 97.4 µM; in experiment [3] it was above 100 µM; in experiment [4], above 100 µM; in experiment [5], above 100 µM. The TGI in experiment [8] was 7.55 µM; in experiment [9] it was 8.8 µM; in [7] it was above 100 µM.
Take `O=C(c1ccc2ccccc2c1)C1S(=O)(=O)OCCOS1(=O)=O`: the TGI in experiment [1], in experiment [2], in experiment [3], in experiment [4], in [5] and in experiment [8] was above 100 µM throughout. The compound also returned a TGI in [9] above 100 µM.
On to `COc1cc2cc(C(=O)N3CC(CCl)c4c3cc(N)c3ccccc43)[nH]c2cc1OCCN(C)C` (configuration not stated), for which the TGI in [1] was found to be 0.409 µM; in [2], 0.623 µM; in experiment [10], 0.125 µM; in [3], 0.00977 µM; in experiment [5], 8.68 µM; in experiment [8] it was 0.175 µM. Also, the results for the TGI in experiment [9] and in experiment [7] were 0.408 µM and below 0.005 µM, respectively.
With `COc1cccc(NC(=O)CSc2nnc(-c3ccc(N=Cc4ccc(Cl)cc4)cc3)o2)c1`, the TGI amounted to 36.3 µM in [2]; 47 µM in experiment [3]; 39.3 µM in [4]; 60.6 µM in experiment [5]; 32.9 µM in experiment [6]; 65.1 µM in [9]. Besides, the TGI in experiment [7] was determined as 34 µM.
Consider `CC1=CC(O)C(O)C2(C)C1CC1OC(=O)C(O)C3C(C)C(O)C4(O)OCC13C42` (configuration not stated), for which the TGI was above 625 µM in experiment [2]; 464 µM in [4]; 50 µM in experiment [5]; 214 µM in experiment [6]; above 625 µM in [8]; 108 µM in [9]. In addition, in [7], the TGI came out at 51 µM.
On to `COc1ccc(C(O)c2ccc3c(c2)OCO3)cc1` (configuration not stated), for which the TGI in [1], in experiment [2], in experiment [3], in [4], in experiment [5] and in [6] was above 100 µM throughout. The TGI in experiment [8] and in experiment [7] was above 100 µM each time.
In the case of `CC(=O)/C=C/C=C(\C)CC/C=C(\C)CC(C)C`, the TGI in experiment [2] is 62.8 µM; in experiment [10], above 100 µM; in experiment [3], above 100 µM; in [5], above 100 µM; in experiment [6] it was 42.6 µM; in [9], 38.4 µM. This compound also gave a TGI in experiment [7] of 30.3 µM.
On to `O=S1(=O)NNC(=NCc2ccc(Cl)cc2)c2ccccc21`, for which the TGI in [2], in [3], in experiment [4], in experiment [5], in experiment [9] and in experiment [7] was above 100 µM throughout.
As to `COC(=O)[C@H](C)N1C(=O)N[C@@H](C(C)C)C1=O`, the TGI in experiment [1], in experiment [2], in experiment [3], in experiment [4], in experiment [5] and in experiment [6] was above 100 µM throughout. The TGI in experiment [8], in experiment [9] and in experiment [7] was above 100 µM throughout.
Take `Clc1nc(-[n+]2ccc(-c3ccncc3)cc2)nc(Nc2ccccc2)c1Cl`: the TGI in [1], in experiment [2], in [10], in experiment [3], in experiment [4] and in [5] was above 100 µM each time. The TGI in [8], in [9] and in experiment [7] was above 100 µM in each case.
Regarding `COc1cc(C2C3=C(CCC3=O)Oc3cc4c(cc32)OCO4)cc(OC)c1OC` (configuration not stated), the TGI in [2], in experiment [3], in experiment [4], in experiment [5] and in experiment [7] was above 100 µM each time.
Turning to `Cc1csc2c1C(=O)c1ccsc1C2=O`, the TGI in experiment [2] worked out at 4.7 µM; in experiment [10], 4.37 µM; in [3] it was 2.02 µM; in experiment [4], 1.07 µM; in [5] it was 3.46 µM; in experiment [6] it was 5.16 µM. In addition, the TGI amounted to 5.9 µM in experiment [8], 20.1 µM in [9] and 11.8 µM in [7].
For the compound `CCCCc1c2c(nc3c1CCc1cc4c(nc1-3)-c1nc3c(c(CCCC)c1CC4)CCC/C3=C\c1ccccc1)/C(=C/c1ccccc1)CCC2`, the TGI in [2], in experiment [3], in [4], in experiment [5], in experiment [6] and in [9] was above 100 µM each time. This compound gave a TGI in experiment [7] of 65.4 µM.
`CCOc1ccc2[nH]c3c(C)c4cc[n+](C)cc4c(C)c3c2c1`: the TGI in [2] was 18.5 µM and > 37.7 µM; in experiment [3] it was 30.5 µM and 58.5 µM; in experiment [4], 3.18 µM and 4.52 µM; in experiment [5], 11.5 µM and 12.6 µM; in experiment [6], 3.05 µM and 3.57 µM; in experiment [9], above 86.8 µM. The compound also returned a TGI in [7] above 100 µM. In experiment [4], the GI50 was 0.417 µM and 1.43 µM.
Turning to `CC1(C)O[C@@H](CO)[C@H]([C@@]23OC[C@H]4OC(C)(C)OC4[C@@H]2OC(C)(C)O3)O1` (some centres not stated), the TGI in experiment [2], in experiment [10], in [3], in experiment [4], in experiment [5] and in experiment [6] was above 100 µM throughout. Moreover, the TGI in experiment [8], in [9] and in experiment [7] was above 100 µM throughout.
For the compound `CCCCCc1cc2c(cc1O)CC[C@@H]1[C@@H]2CC[C@]2(C)[C@@H](O)CC[C@@H]12`, the TGI turned out to be 31.6 µM in experiment [2]; 46.5 µM in experiment [10]; 29.4 µM in experiment [3]; 35.5 µM in experiment [4]; 36.5 µM in experiment [5]; 42.7 µM in experiment [6]. The TGI worked out at 37.7 µM in experiment [8], 62.2 µM in experiment [9] and 38.3 µM in experiment [7].
`O=c1[nH]c(=O)n(C2OC(COP(=O)(O)OP(=O)(O)O)C(O)C2O)cc1F` (configuration not stated): the TGI is above 17 µM in experiment [2]; above 50 µM in [3]; above 50 µM in experiment [4]; 12.7 µM in [5]; 34.3 µM in [6]; above 50 µM in [9]. Moreover, in experiment [7], the TGI turned out to be 13.8 µM.
Take `O=C(CC(O)(C(F)(F)F)C(F)(F)F)C(CCCl)C(O)(C(F)(F)F)C(F)(F)F` (configuration not stated): the TGI is above 100 µM in [2]; above 100 µM in experiment [10]; above 100 µM in experiment [3]; 76.1 µM in [4]; 88.6 µM in experiment [5]; above 100 µM in [6]. Besides, the TGI in [8] was 46.7 µM; in experiment [9], 61.1 µM; in [7] it was 70.9 µM.
In the case of `C#CCNC(Cc1cnc[nH]1)C(=O)O` (configuration not stated), the TGI in experiment [2], in [10], in experiment [3], in [4], in experiment [5] and in experiment [6] was above 100 µM each time. In addition, the TGI in experiment [8], in experiment [9] and in [7] was above 100 µM in each case.
For the compound `CN1CCn2c(Br)ccc2C1=O`, the TGI in [2], in experiment [3], in experiment [4], in experiment [5], in experiment [6] and in experiment [9] was above 100 µM each time. This compound also had a TGI in [7] above 100 µM.
Consider `CC(CCC(=O)O)[C@H]1CCC2[C@H]3C(CC[C@@]21C)[C@@]1(C)CCC(O)C[C@H]1C[C@@H]3O` (some centres not stated), for which the TGI in experiment [1], in [2], in experiment [3], in experiment [4], in experiment [5] and in experiment [6] was above 100 µM throughout. Also, the TGI in [8], in experiment [9] and in experiment [7] was above 100 µM each time.
Take `OC1CCCC1C(O)(C(F)(F)F)C(F)(F)F` (configuration not stated): the TGI in experiment [2], in experiment [10], in experiment [3], in [4], in experiment [5] and in experiment [6] was above 100 µM throughout. Moreover, the TGI in experiment [8], in experiment [9] and in experiment [7] was above 100 µM throughout.
On to `N#Cc1c(NC(=O)c2ccccc2)sc2c1CCC(=O)C2`, for which the GI50 was 1.92 µM in [10]; 1.65 µM in experiment [4]; 2.22 µM in [5]; 0.358 µM in [6]; 1.33 µM in experiment [8]; 0.305 µM in experiment [9]. Also, the GI50 in [7] is 1.17 µM. For the same compound, the TGI in experiment [10] is 7.32 µM; in experiment [4], 3.92 µM; in experiment [5], above 100 µM; in experiment [6], 4.66 µM; in experiment [8], 11.8 µM; in [9] it was 1.32 µM. Besides, in experiment [7], the TGI worked out at 3.65 µM.
For `Cc1c2c3cc(O)ccc3nc-2n(C)c2ccccc12`, the TGI was 8.52 µM in experiment [1]; 10.1 µM in experiment [2]; 8.21 µM in experiment [10]; 4.6 µM in experiment [3]; 3.44 µM in experiment [4]; 5.11 µM in experiment [5]. Besides, the TGI in [8] is 3.4 µM; in [9], above 100 µM; in experiment [7], 2.86 µM.
For the compound `CN(C)CCOC(=O)COc1ccc(Cl)cc1`, the TGI in experiment [2], in experiment [3], in experiment [4], in [5], in experiment [6] and in experiment [8] was above 100 µM in each case. The compound further registered a TGI in experiment [7] above 100 µM.
For `N#Cc1c(Nc2ccc(F)cc2)[n+]([O-])c2ccc(Cl)cc2[n+]1[O-]`, the TGI was 74.4 µM in experiment [1]; above 100 µM in experiment [2]; above 100 µM in [10]; 44.2 µM in experiment [3]; above 100 µM in experiment [4]; 7.97 µM in experiment [5]. Besides, the TGI in experiment [8] was found to be 5.37 µM; in [9], 9.97 µM; in [7] it was 27.3 µM.
For `CC1(C)COC(c2cccc(C3=NC(C)(C)CO3)c2Br)=N1`, the TGI in [1], in experiment [2], in [3], in experiment [4], in experiment [5] and in [8] was above 100 µM throughout. Also, the TGI in experiment [9] and in experiment [7] was above 100 µM throughout.
For `CN=C(Nn1cnnc1)OC`, the TGI in experiment [2], in experiment [10], in experiment [3], in experiment [4], in experiment [5] and in experiment [6] was above 100 µM in each case. For the same compound, the TGI in [8], in experiment [9] and in experiment [7] was above 100 µM each time.
Take `COC(=O)c1ccc(-c2nc(C#N)c(N)o2)cc1`: the TGI in [1], in experiment [2], in [10], in [3], in experiment [4] and in [5] was above 100 µM each time. Besides, the TGI in experiment [6], in experiment [9] and in experiment [7] was above 100 µM in each case.
